Reference: patent US20150065423A1, “RAPID ACTING INJECTABLE FORMULATIONS” (Perosphere, Inc., priority 2013, published 2015)
Converted amounts (≈) assume the structure as drawn.

How the values were obtained:
[1] = Soluble concentration of nitroglycerin measured by HPLC; settings: aqueous with cosolvent or surfactant or cyclodextrin
Source text: The resultant suspension was centrifuged and the supernatant withdrawn to become the test article. […] The results are depicted in FIG. 1.

[2] = "it is believed"; cited from earlier work

O=[N+]([O-])OCC(CO[N+](=O)[O-])O[N+](=O)[O-] [nitroglycerin]
solubility ([1]; soluble concentration of nitroglycerin, in presence of 5% aqueous solution of Pluronic F127): ~3800 µg/mL | solubility ([1]; soluble concentration of nitroglycerin, in presence of 5% aqueous solution of Tween 80): ~4500 µg/mL | solubility ([1]; thermodynamic from solid, final concentration of nitroglycerin (solubility limit)): ~1000 µg/mL (≈ 4.4 mM) | solubility ([1]; thermodynamic from solid, soluble concentration of nitroglycerin, in presence of 20% aqueous solution of PEG3350): 2000 µg/mL | water solubility [2]: < 1000 µg/mL
